Reference: patent publication US20090269796A1, “METHODS OF DETECTING AND TREATING MYOCARDIAL ISCHEMIA AND MYOCARDIAL INFARCTION” (THE GENERAL HOSPITAL CORPORATION, priority 2007, published 2009)

test system: Neonatal rat cardiomyocytes; assay: Hypoxia-induced apoptosis (annexin V) of cardiomyocytes pretreated with individual metabolites; type: cell-based; settings: metabolite added 5 minutes before 3 hours hypoxia; lowest concentration screened; annexin V-positive cells; FIG. 6
Description: Neonatal rat cardiomyocytes were treated with individual metabolites previously identified using planned MI metabolomics. In the first, metabolites that are increased in the peripheral blood and/or the coronary sinus samples were prioritized. Neonatal cardiomyocytes were isolated from 1-day old rats, cultured for three days, and then challenged in a hypoxia chamber (<0.5% O2, 95% nitrogen and 5% CO2 at 37° C.) for 3 hours, as previously described.^18 Baseline apoptosis is typically ˜10%, which increases to ˜30% following hypoxic challenge, as assessed by FITC-conjugated annexin V staining. Metabolites at the indicated concentrations were added to experimental plates 5 minutes prior to the onset of hypoxia. Metabolites were examined at ˜2 fold reported blood concentrations (where available), as well as at one log increased concentration (see also Human Metabolomics Database, HMDB, at http://www.hmdb.ca). 30 minutes after reoxygenation, the number of annexin V-positive cells per five HPF was counted from n=3 culture plates. The data depicted represent the percent change in apoptosis relative to the hypoxia control for the lowest concentration of each metabolite screened. (*P<0.05 by unpaired student's t test). […] Accordingly, one would seek to inhibit the metabolite in question as part of treatment or prevention scheme.
Accordingly, one would seek to administer the metabolite in question as part of treatment or prevention scheme. Such metabolites include, according to FIG. 6, G3P, inosine, malonic acid, TMNO, and orotic acid. Alternatively, one could administer a compound that upregulates a pathway that results in the production of the metabolite in question.

Question: Which “Mean % change in apoptosis vs. hypoxia control” value (shortened to “Mean % change”) does the source give for `O=P(O)(O)OCC(O)CO` (stereo not drawn) [Glycerol-3-P, glycerol-3-phosphate] here?
Answer: The value was “reduces cell death”.

Question: With `O=c1[nH]cnc2nc[nH]c12` [Hypoxanthine] as the molecule, how does the “Mean % change” value read?
Answer: Its value is “potentiates cell death”.

Question: Which “Mean % change” value does the source give for `OC[C@H]1O[C@@H](n2cnc3c(O)ncnc32)[C@H](O)[C@@H]1O` [Inosine] here?
Answer: The value was “reduces cell death”.

Question: Which “Mean % change” value does the source give for `O=C(O)CC(=O)O` [Malonic Acid] here?
Answer: The value was “reduces cell death”.

Question: Which “Mean % change” value does the source give for `O=C(O)c1cc(=O)[nH]c(=O)[nH]1` [Orotic Acid] here?
Answer: The value was “reduces cell death”.

Question: For `O=C(O)CCC(=O)O` [Succinic Acid], which “Mean % change” value is on record?
Answer: Its value is “potentiates cell death”.

Question: With `NCCS(=O)(=O)O` [Taurine] as the molecule, how does the “Mean % change” value read?
Answer: Its value is “potentiates cell death”.

Question: For `C[N+](C)(C)[O-]` [Trimethylamine-N-Oxide], which “Mean % change” value is on record?
Answer: The value was “reduces cell death”.

test system: not listed separately; assay: Metabolite changes in peripheral plasma after planned MI (alcohol septal ablation), LC-MS/MS profiling; type: in vivo, human; settings: FIG. 3, lower panel
From the text: A total of 36 patients undergoing planned MI using alcohol septal ablation for the treatment of symptomatic hypertrophic obstructive cardiomyopathy (HOCM) were included. Inclusion criteria for the cohort were: 1) primary HOCM; 2) septal thickness of 16 mm or greater; 3) resting outflow tract gradient of greater than 30 mmHg, or an inducible outflow tract gradient of at least 50 mm Hg; 4) symptoms refractory to optimal medical therapy; and 5) appropriate coronary anatomy. The most proximal accessible septal branch was instrumented using standard angioplasty guiding catheters and guidewires and 1.5 or 2.0 mm×9 mm Maverick™ balloon catheters. Radiographic and echocardiographic contrast injections confirmed proper selection of the septal branch and balloon catheter position. Ethanol was infused through the balloon catheter at 1 ml per minute. Additional injections in the same or other septal branches were administered as needed, causing cessation of blood flow to the isolated myocardium, and to reduce the gradient to <20 mmHg.^16 […]
The three HPLC columns were connected in parallel via an automated switching valve on a robotic sample loader (Leap Technologies) to a triple quadrupole mass spectrometer (AB4000Q, Applied Biosystem/Sciex), operated in electrospray ionization mode using a turbo ion spray LC/MS interface. […] A total of 210 known metabolites were monitored for each sample. […]

Question: With `Nc1ccccc1C(=O)O` [anthanilic acid] as the molecule, how does the “Kinetic pattern of change in peripheral plasma after planned MI” value read?
Answer: The value was “Later-appearing”.

Question: With `CN(CC(=O)O)C(=N)N` [creatine] as the molecule, how does the “Kinetic pattern of change in peripheral plasma after planned MI” value read?
Answer: The value was “Later-appearing”.

test system: not listed separately; assay: Simultaneous coronary sinus and peripheral plasma sampling after planned MI (13-patient subgroup), LC-MS/MS profiling; type: in vivo, human; settings: elevated earlier in coronary sinus, FIG. 4 top panel
Description: Blood was drawn at baseline (just prior to the onset of the ablation) and at minutes, 1 hour, 2 hours, 4 hours and 24 hours following the onset of injury as depicted in FIG. 1. 13 of the 36 patients consented to the placement of a coronary sinus catheter during the ablation, allowing for the simultaneous sampling from coronary sinus and femoral catheters at the baseline, 10-minute and 1-hour time points. The coronary sinus catheter was subsequently removed prior to the patient leaving the catheterization suite.
Samples were obtained from femoral venous catheters during the procedure or, where indicated, from a catheter placed in the coronary sinus. Samples were collected in K2EDTA-treated tubes (Becton Dickinson). All blood samples were centrifuged at 2000×g for 10 minutes to pellet cellular elements. The supernatant plasma was then aliquoted and immediately frozen at −80° C. to minimize freeze-thaw degradation. Additional blood samples were sent to the clinical chemistry laboratory for evaluation of the standard cardiac markers creatine kinase (CK), CK-MB, and Troponin T (Roche Diagnostics).
The specificity of the findings described above was further examined by exploring the anatomic origin of the metabolic changes. […]

Question: For `O=P(O)(O)OCC(O)CO` (stereo not drawn) [Glycerol-3-P, glycerol-3-phosphate], which “Time after injury until elevation evident in the periphery” value is on record?
Answer: The value was 120 min.

Question: For `O=C(O)CC(O)C(=O)O` (stereo not drawn) [Malic Acid], which “Time after injury until elevation evident in the periphery” value is on record?
Answer: Its value is 120 min.
